Results published in patent US10829520B2, “Beta-hairpin peptidomimetics” (POLYPHOR AG, priority 2015, dated 2020).
Where a SMILES comes first, the peptide text is derived from it. Bridges are numbered along the chain shown (N, C = ends). [ ]: non-standard residue; d: D form. Tle = CC(C)(C)[C@H](N)C(=O)O; Nle = CCCC[C@H](N)C(=O)O; Orn = NCCC[C@H](N)C(=O)O; Dab = NCC[C@H](N)C(=O)O; Aib = CC(C)(N)C(=O)O

Key:
Type in all cases: cell-based
[1] = test system: Acinetobacter baumannii 872842; settings: 872842
[2] = test system: Acinetobacter baumannii DSM 30008; settings: DSM 30008
In short: (§1)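 Inocula standardised to a 0.5 McFarland reference and diluted to about 10^6 CFU/mL in MH-II broth are incubated with two-fold peptide series containing 0.002% polysorbate 80. No visible growth after 18-20 hours at 35° C defines the MIC, in μg/mL.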

Escherichia coli 926415 = settings: 926415
[3] = test system: Escherichia coli ATCC 25922; settings: ATCC 25922
In short: as §1

[4] = test system: Klebsiella pneumoniae 968733; settings: 968733
[5] = test system: Klebsiella pneumoniae SSI #3010; settings: SSI #3010
In short: as §1

[6] = test system: Pseudomonas aeruginosa ATCC 27853; settings: ATCC 27853
In short: as §1

[7] = test system: human red blood cells (hRBC); experiment: Hemolysis of human red blood cells; settings: red cells of human, 1 h, 100 μg/mL
In short: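 Peptides at 100 μg/mL were incubated with PBS-washed fresh human erythrocytes (20% v/v, ~0.9×10^9 cells/mL final) for 1 h at 37° C. with shaking. Supernatant OD540 was read after 8-fold dilution; percent hemolysis was expressed relative to the 2.5% Triton X-100 full-lysis control, with PBS/0.001% acetic acid as 0%.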

Structure (SMILES) | Acinetobacter baumannii 872842 MIC [1] [µg/mL] | Acinetobacter baumannii DSM 30008 MIC [2] [µg/mL] | Escherichia coli 926415 MIC (Escherichia coli 926415) [µg/mL] | Escherichia coli ATCC 25922 MIC [3] [µg/mL] | Klebsiella pneumoniae 968733 MIC [4] [µg/mL] | Klebsiella pneumoniae SSI #3010 MIC [5] [µg/mL] | Pseudomonas aeruginosa ATCC 27853 MIC [6] [µg/mL] | Hemolysis at 100 μg/mL [7] [%]
CCCC[C@@H]1NC(=O)[C@@H]2CCCN2C(=O)[C@H]2CCCN2C(=O)[C@H](CO)NC(=O)[C@H](C)NC(=O)[C@H](C(C)(C)C)NC(=O)[C@@H](NC(=O)[C@H](Cc2c[nH]c3ccccc23)NC(=O)[C@@H](N)CCCN)CSSC[C@@H](C(=O)N[C@@H](CCN)C(=O)N[C@H](C(=O)N[C@@H](CCN)C(=O)N[C@H]2CCNC(=O)[C@H]([C@@H](C)O)NC(=O)[C@H](CCN)NC(=O)[C@H](CCN)NC(=O)[C@H](CC(C)C)NC(=O)[C@@H](Cc3ccccc3)NC(=O)[C@H](CCN)NC2=O)[C@@H](C)O)NC(=O)[C@H](Cc2ccc(O)cc2)NC(=O)[C@H](CO)NC1=O [Ex. 38] (H-[Orn]WC[Tle]AS[dP]P[Nle]SYC[Dab]T[Dab][Dab][Dab][dF]L[Dab][Dab]T; disulfide 3-12; lactam 16-C) | 0.5 | 0.5 | 0.125 | 0.25 | 2 | 0.25 | 0.25 | 1
CCCC[C@@H]1NC(=O)[C@@H]2CCCN2C(=O)[C@H]2CCCN2C(=O)[C@H](CO)NC(=O)[C@H](C)NC(=O)[C@H](C(C)(C)C)NC(=O)[C@@H](NC(=O)[C@H](Cc2c[nH]c3ccccc23)NC(=O)[C@@H](N)CCCNC(=N)N)CSSC[C@@H](C(=O)N[C@@H](CCN)C(=O)N[C@H](C(=O)N[C@@H](CCN)C(=O)N[C@H]2CCNC(=O)[C@H]([C@@H](C)O)NC(=O)[C@H](CCN)NC(=O)[C@H](CCN)NC(=O)[C@H](CC(C)C)NC(=O)[C@@H](Cc3ccccc3)NC(=O)[C@H](CCN)NC2=O)[C@@H](C)O)NC(=O)[C@H](Cc2ccc(O)cc2)NC(=O)[C@H](CO)NC1=O [Ex. 39] (H-RWC[Tle]AS[dP]P[Nle]SYC[Dab]T[Dab][Dab][Dab][dF]L[Dab][Dab]T; disulfide 3-12; lactam 16-C) | 0.5 | 0.25 | 0.25 | 0.25 | 2 | 0.125 | 0.25 | 4
CCCC[C@@H]1NC(=O)[C@@H]2CCCN2C(=O)[C@H]2CCCN2C(=O)[C@H](CO)NC(=O)[C@H](C)NC(=O)[C@H](C(C)(C)C)NC(=O)[C@@H](NC(=O)[C@H](Cc2c[nH]c3ccccc23)NC(=O)[C@@H](N)CCC(=O)O)CSSC[C@@H](C(=O)N[C@@H](CCN)C(=O)N[C@H](C(=O)N[C@@H](CCN)C(=O)N[C@H]2CCNC(=O)[C@H]([C@@H](C)O)NC(=O)[C@H](CCN)NC(=O)[C@H](CCN)NC(=O)[C@H](CC(C)C)NC(=O)[C@@H](Cc3ccccc3)NC(=O)[C@H](CCN)NC2=O)[C@@H](C)O)NC(=O)[C@H](Cc2ccc(O)cc2)NC(=O)[C@H](CO)NC1=O [Ex. 40] (H-EWC[Tle]AS[dP]P[Nle]SYC[Dab]T[Dab][Dab][Dab][dF]L[Dab][Dab]T; disulfide 3-12; lactam 16-C) | 0.125 | 0.25 | 0.5 | 0.125 | 4 | 0.25 | 0.5 | 2
CCCC[C@@H]1NC(=O)[C@@H]2CCCN2C(=O)[C@H]2CCCN2C(=O)[C@H](CO)NC(=O)[C@H](C)NC(=O)[C@H](C(C)(C)C)NC(=O)[C@@H](NC(=O)[C@H](Cc2c[nH]c3ccccc23)NC(=O)[C@H](C)NC(C)=O)CSSC[C@@H](C(=O)N[C@@H](CCN)C(=O)N[C@H](C(=O)N[C@@H](CCN)C(=O)N[C@H]2CCNC(=O)[C@H]([C@@H](C)O)NC(=O)[C@H](CCN)NC(=O)[C@H](CCN)NC(=O)[C@H](CC(C)C)NC(=O)[C@@H](Cc3ccccc3)NC(=O)[C@H](CCN)NC2=O)[C@@H](C)O)NC(=O)[C@H](Cc2ccc(O)cc2)NC(=O)[C@H](CO)NC1=O [Ex. 41] (Ac-AWC[Tle]AS[dP]P[Nle]SYC[Dab]T[Dab][Dab][Dab][dF]L[Dab][Dab]T; disulfide 3-12; lactam 16-C) | 0.5 | 0.5 | 0.5 | 2 | 1 | 0.25 | 0.5 | <1
CCCC[C@@H]1NC(=O)[C@@H]2CCCN2C(=O)[C@H]2CCCN2C(=O)[C@H](CO)NC(=O)[C@H](C)NC(=O)[C@H](C(C)(C)C)NC(=O)[C@@H](NC(=O)[C@H](Cc2c[nH]c3ccccc23)NC(=O)[C@@H](N)CCN)CSSC[C@@H](C(=O)N[C@@H](CCN)C(=O)N[C@H](C(=O)N[C@@H](CCN)C(=O)N[C@H]2CCNC(=O)[C@H]([C@@H](C)O)NC(=O)[C@H](CCN)NC(=O)[C@H](CCN)NC(=O)[C@H](CC(C)C)NC(=O)[C@@H](Cc3ccccc3)NC(=O)[C@H](CCN)NC2=O)[C@@H](C)O)NC(=O)[C@H](Cc2ccc(O)cc2)NC(=O)[C@H](CO)NC1=O [Ex. 42] (H-[Dab]WC[Tle]AS[dP]P[Nle]SYC[Dab]T[Dab][Dab][Dab][dF]L[Dab][Dab]T; disulfide 3-12; lactam 16-C) | 0.25 | 0.25 | 0.25 | 0.125 | 2 | 0.25 | 0.25 | <1
CCCC[C@@H]1NC(=O)[C@@H]2CCCN2C(=O)[C@H]2CCCN2C(=O)[C@H](CO)NC(=O)[C@H](C)NC(=O)[C@H](C(C)(C)C)NC(=O)[C@@H](NC(=O)[C@H](Cc2c[nH]c3ccccc23)NC(=O)[C@@H](N)[C@@H](C)O)CSSC[C@@H](C(=O)N[C@@H](CCN)C(=O)N[C@H](C(=O)N[C@@H](CCN)C(=O)N[C@H]2CCNC(=O)[C@H]([C@@H](C)O)NC(=O)[C@H](CCN)NC(=O)[C@H](CCN)NC(=O)[C@H](CC(C)C)NC(=O)[C@@H](Cc3ccccc3)NC(=O)[C@H](CCN)NC2=O)[C@@H](C)O)NC(=O)[C@H](Cc2ccc(O)cc2)NC(=O)[C@H](CO)NC1=O [Ex. 43] (H-TWC[Tle]AS[dP]P[Nle]SYC[Dab]T[Dab][Dab][Dab][dF]L[Dab][Dab]T; disulfide 3-12; lactam 16-C) | 1.5 | 0.5 | 1.5 | 0.125 | 0.5 | 0.25 | 0.5 | 1
CCCC[C@@H]1NC(=O)[C@@H]2CCCN2C(=O)[C@H]2CCCN2C(=O)[C@H](CO)NC(=O)[C@H](C)NC(=O)[C@H](C(C)(C)C)NC(=O)[C@@H](NC(=O)[C@H](Cc2c[nH]c3ccccc23)NC(=O)C(C)(C)N)CSSC[C@@H](C(=O)N[C@@H](CCN)C(=O)N[C@H](C(=O)N[C@@H](CCN)C(=O)N[C@H]2CCNC(=O)[C@H]([C@@H](C)O)NC(=O)[C@H](CCN)NC(=O)[C@H](CCN)NC(=O)[C@H](CC(C)C)NC(=O)[C@@H](Cc3ccccc3)NC(=O)[C@H](CCN)NC2=O)[C@@H](C)O)NC(=O)[C@H](Cc2ccc(O)cc2)NC(=O)[C@H](CO)NC1=O [Ex. 44] (H-[Aib]WC[Tle]AS[dP]P[Nle]SYC[Dab]T[Dab][Dab][Dab][dF]L[Dab][Dab]T; disulfide 3-12; lactam 16-C) | 0.5 | 0.125 | 0.25 | 0.125 | 2 | 0.25 | 0.25 | <1
CCCC[C@@H]1NC(=O)[C@@H]2CCCN2C(=O)[C@H]2CCCN2C(=O)[C@H](CO)NC(=O)[C@H](C)NC(=O)[C@H](C(C)(C)C)NC(=O)[C@@H](NC(=O)[C@@H](N)Cc2c[nH]c3ccccc23)CSSC[C@@H](C(=O)N[C@@H](CCCN)C(=O)N[C@@H](CCN)C(=O)N[C@H]2CCNC(=O)[C@H]([C@@H](C)O)NC(=O)[C@H](CCN)NC(=O)[C@H](CCN)NC(=O)[C@H](CC(C)C)NC(=O)[C@@H](Cc3ccccc3)NC(=O)[C@H](CCN)NC2=O)NC(=O)[C@H](Cc2ccc(O)cc2)NC(=O)[C@H](CO)NC1=O [Ex. 45] (H-WC[Tle]AS[dP]P[Nle]SYC[Orn][Dab][Dab][Dab][dF]L[Dab][Dab]T; disulfide 2-11; lactam 14-C) | 0.25 | 0.125 | 0.25 | 0.125 | 0.25 | 0.125 | 0.5 | 1
